# Experimental data as given in the Kinase Knowledgebase extract (Sharma et al. 2016).
# Molecular target: EGFR (human) (UniProt P00533)
# Sequence (P00533 whole entry, looked up): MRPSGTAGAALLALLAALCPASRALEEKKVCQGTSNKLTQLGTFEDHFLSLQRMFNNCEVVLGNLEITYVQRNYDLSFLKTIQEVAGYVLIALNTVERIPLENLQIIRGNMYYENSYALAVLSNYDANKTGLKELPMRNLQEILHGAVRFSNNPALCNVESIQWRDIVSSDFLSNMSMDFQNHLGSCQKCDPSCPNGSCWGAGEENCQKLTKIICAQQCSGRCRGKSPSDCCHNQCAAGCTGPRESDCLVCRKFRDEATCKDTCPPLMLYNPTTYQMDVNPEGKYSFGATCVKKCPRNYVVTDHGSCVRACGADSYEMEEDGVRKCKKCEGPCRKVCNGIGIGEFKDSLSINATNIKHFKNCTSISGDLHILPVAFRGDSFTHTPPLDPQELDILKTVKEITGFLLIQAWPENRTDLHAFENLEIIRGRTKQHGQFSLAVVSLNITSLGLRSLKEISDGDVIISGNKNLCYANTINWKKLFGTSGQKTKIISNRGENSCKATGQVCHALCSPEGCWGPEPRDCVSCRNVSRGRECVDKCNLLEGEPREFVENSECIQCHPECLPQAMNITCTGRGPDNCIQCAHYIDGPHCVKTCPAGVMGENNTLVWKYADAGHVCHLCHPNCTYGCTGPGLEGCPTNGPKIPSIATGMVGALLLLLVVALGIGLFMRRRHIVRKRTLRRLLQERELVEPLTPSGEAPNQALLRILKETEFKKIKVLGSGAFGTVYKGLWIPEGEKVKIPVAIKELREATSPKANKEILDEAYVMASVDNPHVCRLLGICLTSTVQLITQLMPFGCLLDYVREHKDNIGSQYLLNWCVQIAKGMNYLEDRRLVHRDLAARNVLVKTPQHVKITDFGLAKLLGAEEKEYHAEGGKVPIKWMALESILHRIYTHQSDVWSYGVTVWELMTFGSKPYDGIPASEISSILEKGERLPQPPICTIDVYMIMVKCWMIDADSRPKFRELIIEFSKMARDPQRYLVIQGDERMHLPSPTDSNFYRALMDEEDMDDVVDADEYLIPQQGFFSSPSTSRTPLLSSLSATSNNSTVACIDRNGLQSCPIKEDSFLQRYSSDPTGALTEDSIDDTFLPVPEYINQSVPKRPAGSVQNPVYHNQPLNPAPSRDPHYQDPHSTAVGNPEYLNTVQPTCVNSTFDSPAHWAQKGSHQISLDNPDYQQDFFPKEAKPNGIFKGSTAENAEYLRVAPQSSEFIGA
row,Structure (SMILES),Ki
1,Brc1ccc2[nH]c3nccc(NCc4ccccc4)c3c2c1,43 nM
2,c1ccc2c(CNc3ccnc4[nH]c5ccccc5c34)cccc2c1,360 nM
3,c1cncc(CNc2ccnc3[nH]c4ccccc4c23)c1,3830 nM
4,Clc1cccc(CNc2ccnc3[nH]c4ccccc4c23)c1,99 nM
5,COc1ccc(CNc2ccnc3[nH]c4ccccc4c23)cc1,450 nM
6,Clc1ccc(CNc2ccnc3[nH]c4ccccc4c23)cc1,1040 nM

# Further lines, results first:
row,Ki,Structure (SMILES)
1,30 nM,C[C@H](Nc1ccnc2[nH]c3ccccc3c12)c1ccccc1
2,1040 nM,c1ccc(CCNc2ccnc3[nH]c4ccccc4c23)cc1
3,840 nM,C[C@@H](Nc1ccnc2[nH]c3ccccc3c12)c1ccccc1
4,85 nM,c1ccc(CNc2ccnc3[nH]c4ccccc4c23)cc1
